Broadly, the IC50 is the concentration needed to halve the response being measured. Low readings indicate higher potency, high ones lower potency.

In the assay the target is T1, ACAT (acyl-CoA: cholesterol acyl transferase) (Mus musculus, UniProt Q61263).
T1 construct: endogenous in cells; host or cells: primary adherent peritoneal macrophages from unstimulated female DDY mice
T1 sequence (Q61263 1-540): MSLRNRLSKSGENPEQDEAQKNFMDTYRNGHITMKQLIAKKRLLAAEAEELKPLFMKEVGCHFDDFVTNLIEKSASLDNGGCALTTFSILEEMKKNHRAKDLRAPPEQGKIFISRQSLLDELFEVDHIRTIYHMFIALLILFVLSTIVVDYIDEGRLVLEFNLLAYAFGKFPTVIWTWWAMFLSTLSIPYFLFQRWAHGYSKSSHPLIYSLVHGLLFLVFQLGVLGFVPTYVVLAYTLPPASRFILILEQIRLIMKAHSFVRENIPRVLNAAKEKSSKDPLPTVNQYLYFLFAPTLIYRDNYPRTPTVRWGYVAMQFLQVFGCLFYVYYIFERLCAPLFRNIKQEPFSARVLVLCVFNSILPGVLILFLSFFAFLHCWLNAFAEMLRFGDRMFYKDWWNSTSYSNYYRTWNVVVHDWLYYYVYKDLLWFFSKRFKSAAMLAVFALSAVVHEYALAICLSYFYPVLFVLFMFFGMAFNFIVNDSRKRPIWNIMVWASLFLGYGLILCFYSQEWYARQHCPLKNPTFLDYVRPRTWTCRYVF
As to the kind of experiment: Inhibition of ACAT in M.phi. (mouse peritoneal macrophages). The following applies: β-VLDL 50 μg cholesterol/ml, [14C]oleate-albumin, 37° C., 3 hours. In kind it is cell-based, mouse (female DDY mice). Here is the method: Blood was obtained [using the anticoagulant ethylene diamine tetraacetic acid (5 mM)] from Japanese White rabbits which had been fed a 2% w/w cholesterol diet for 2 weeks and then fasted overnight prior to removing the blood. β-VLDL (d<1.006 g/ml) was isolated by ultracentrifugation from the plasma according to the method of Hatch and Lees [Hatch, F T. and Lees, R S.,Adv. Lipid Res., 6 1-68 (1968)] and dialyzed at 4° C. against 10 mM of a sodium phosphate buffer (pH 7.4) containing 150 mM sodium chloride.
Peritoneal cells were harvested from unstimulated female DDY mice (body weight 20-30 g) in phosphate buffer saline (PBS) as described by Edelson and Cohn [Edelson, P J. and Cohn, Z A.,1976, "In Vitro Methods in Cell-Mediated and Tumor Immunity", editors Bloon, B R and David, J R., (Academic Press, New York), 330-340.]. The fluid from the mice was pooled and the cells were collected by centrifugation at 400×g for 10 minutes at 4° C., and washed once with PBS. The cells were resuspended in Dulbecco's modified Eagle's medium (DMEM) containing 10% (vol/vol) fetal calf serum (FCS), penicillin (100 units/ml), and streptomycin (100 μg/ml) at a final concentration of 3×10^6 cells per ml. Aliquots (1 ml) of this cell suspension were dispersed onto plastic petri dishes (35×10 mm) and then incubated in a CO2 incubator (5% CO2 /95% air) at 37° C. for 2 hours. Each dish was washed twice with PBS without serum to remove nonadherent cells.
Inhibition of ACAT in M.phi. was determined according to the method described by Brown et al. Brown, M S., Goldstein J L., Krieger, M., Ho, Y K. and Anderson, R G W. (1979) J. Cell Biol., 82, 597-613.]. Cholesterol reacylation was initiated by adding β-VLDL (final concentration 50 μg cholesterol/ml), [^14 C]oleate-albumin complex (final concentrations: 0.2 mM oleate and 0.6 mg/ml albumin) and a test compound dissolved in ethanol into the M.phi. monolayer, and the preparation was incubated at 37° C. for 3 hours in a CO2 incubator. Cells were washed three times with PBS and cellular lipid was extracted with 1 ml hexane/isopropanol (3:2 vol/vol). A lipid extract was evaporated to dryness in a stream of nitrogen. Cholesterol [^14 C]oleated was seperated by thin layer chromatography through silica gel using an 85:15:1 by volume mixture of hexane, diethyl ether and acetic acid as developing solvents. The ACAT activity in M.phi. was determined by measuring the radioactivity and an inhibition rate (%) was calculated by comparing a control activity with those of the test compound at given concentrations. The results are shown in the following Table, in which the compounds of the present invention are identified by the number of the Example given hereafter in which they are prepared.
`CCCCCC(CC(=O)Nc1cc(CC(=O)NC)ccc1C(C)(C)C)c1ccc(OC)cc1OC` (stereo not drawn) [Example 3]: 31.1 nM corresponded to half-maximal inhibition (IC50).

`CCCCCC(CC(=O)Nc1cc(CC(N)=O)ccc1C(C)(C)C)c1ccc(OC)cc1OC` (stereo not drawn) [Example 4, N-[2-t-Butyl-5-(carbamoylmethyl)phenyl]-3-(2,4-dimethoxyphenyl)octanamide] showed an IC50 of 5.97 nM.

As for `CCCCCCC(CC(=O)Nc1cc(C(N)=O)ccc1C(C)(C)C)c1ccc(OC)cc1OC` (stereo not drawn) [Example 44, N-(2-t-Butyl-5-carbamoylphenyl)-3-(2,4-dimethoxyphenyl)nonanamide], the IC50 is 23.5 nM.

As for `CCCCCC(CC(=O)Nc1cc(C(=O)NC(=O)C(C)C)ccc1C(C)(C)C)c1ccc(OC)cc1OC` (stereo not drawn) [Example 131, N-[2-t-Butyl-5-(2-methylpropanoyl)aminocarbonylphenyl)-3-(2,4-dimethoxyphenyl]octanamide], half-maximal inhibition (IC50) was put at 17.3 nM.

For `CCCCCC(CC(=O)Nc1cc(CC#N)ccc1C(C)(C)C)c1ccc(OC)cc1OC` (stereo not drawn) [Example 19, N-(2-t-Butyl-5-cyanomethylphenyl)-3-(2,4-dimethoxyphenyl)octanamide], the IC50 was 28.8 nM.

In the case of `CCCCCC(CC(=O)Nc1cc(C(=O)NC)ccc1C(C)(C)C)c1ccc(OCC(=O)NCCCC)cc1OC` (stereo not drawn) [Example 64, N-(2-t-Butyl-5-N'-methylcarbamoylphenyl)-3-(4-N"-butylcarbamoylmethloxy-2-methoxyphenyl)octanamide], the IC50 is 29.9 nM.

Take `CCCCCC(CC(=O)Nc1cc(C(N)=O)ccc1C(C)(C)C)c1ccc(OC)cc1OC` (stereo not drawn) [Example 2, N-(2-t-Butyl-5-carbamoylphenyl)-3-(2,4-dimethoxyphenyl)octanamide]: the IC50 was 41.8 nM.

Consider `CCCCCC(CC(=O)Nc1cc(CN2C(=O)c3ccccc3C2=O)ccc1C(C)(C)C)c1cccc2c1OCCO2` (stereo not drawn) [Example 142, N-[2-t-Butyl-5-(phthalimidomethyl)phenyl]-3-(2,3-ethylenedioxyphenyl)octanamide], for which the 50% inhibitory concentration (IC50) was 35.2 nM.

Compound `CCCCCC(CC(=O)Nc1cc(C(=O)NC)ccc1C(C)(C)C)c1cc(C(=O)NC)c(OC)cc1OC` (stereo not drawn) [Example 35, N-(2-t-Butyl-5-N'-methylcarbamoylphenyl)-3-(2,4-dimethoxy-5-N"-methylcarbamoylphenyl)octanamide] showed a half-maximal inhibitory concentration (IC50) of 62.8 nM.

Compound `CCCCCC(CC(=O)Nc1cc(CNC(=O)NC(C)C)ccc1C(C)(C)C)c1cccc2c1OCCO2` (stereo not drawn) [Example 173, N-[2-t-Butyl-5-(N'-isopropylureidomethyl)phenyl]-3-(2,3-ethylenedioxyphenyl)octanamide] gave an IC50 of 17.6 nM.

`CCCCCC(CC(=O)Nc1cc(CNS(=O)(=O)CC)ccc1C(C)(C)C)c1ccc(OC)cc1OC` (stereo not drawn) [Example 11, N-[2-t-Butyl-5-(ethylsulfonylaminomethyl)phenyl]-3-(2,4-dimethoxyphenyl)octanamide] showed an IC50 of 9.76 nM.

Compound `CCCCCC(CC(=O)Nc1cc(C(=O)Nc2ccccn2)ccc1C(C)(C)C)c1c(OC)cccc1OC` (stereo not drawn) [Example 165, N-{2-t-Butyl-5-[N-(2-pyridyl)carbamoyl]phenyl}-3-(2,6-dimethoxyphenyl)octanamide] gave an IC50 of 1.37 nM.

For the compound `CCCCCC(CC(=O)Nc1cc(CCC(=O)NC)ccc1C(C)(C)C)c1cc(OC)c(OC)cc1OC` (stereo not drawn) [Example 186, N-[2-t-Butyl-5-(3-methylamino-3-oxopropyl)phenyl]-3-(2,4,5-trimethoxyphenyl)octanamide], the IC50 was 79.7 nM.

In turn, `CCCCCC(CC(=O)Nc1cc(C(=O)NC(=O)c2cccnc2)ccc1C(C)(C)C)c1ccc(OC)cc1OC` (stereo not drawn) [Example 136, N-{2-t-Butyl-5-[(3-pyridyl)carbonlaminocarbonyl]phenyl}-3-(2,4-dimethoxyphenyl)octanamide] showed an IC50 of 9.65 nM.

As to `CCCCCC(CC(=O)Nc1cc(COC(N)=O)ccc1C(C)(C)C)c1ccc(OC)cc1OC` (stereo not drawn) [Example 5, N-[2-t-Bu=l-5-(carbamoyloxymethyl)phenyl]-3-(2,4-dimethoxyphenyl)octanamide], the IC50 is 68.1 nM.

With `CCCCCC(CC(=O)Nc1cc(C(=O)NC)ccc1C(C)(C)C)c1ccc(OC)cc1OC` (stereo not drawn) [Example 1, N-(2-t-Butyl-5-N'-methylcarbamoylphenyl)-3-(2,4-dimethoxphenyl)octanamide], the IC50 is 59.7 nM.

In turn, `CCCCCC(CC(=O)Nc1cc(CNC(=O)N(C)C)ccc1C(C)(C)C)c1ccc(OC)cc1OC` (stereo not drawn) [Example 23, N-[2-t-Butyl-5-(N',N'-dimethylaminocarbonylaminomethyl)phenyl]-3-(2,4-dimethoxyphenyl)octanamide] gave an IC50 of 10.6 nM.

With `CCCCCC(CC(=O)Nc1cc(CNC(=O)c2cccnc2)ccc1C(C)(C)C)c1ccc(OC)cc1OC` (stereo not drawn) [Example 158, N-[2-t-Butyl-5-(N'-3-pyridylcarbonylaminomethyl)phenyl]-3-(2,4-dimethoxyphenyl)octanamide], inhibition was half-maximal at 18 nM (IC50).

(Values after patent US5880147A, “Amide derivatives having ACAT inhibitory activity, their preparation and their therapeutic and prohylactic use” (Sankyo Company, Limited, priority 1995, dated 1999).)
